Patent publication US9879303B2, “Chromogenic glucuronidase substrates and uses” (Glycosynth Limited, priority 2013, dated 2018)
Counter-ions that a name gives are not always drawn.

System: E. coli clinical isolates
Assay: screen of strains in broth medium containing FAC
Assay type: cell-based
Parameters: key to colour: Red, Green, Black or Purple mean strong colour; Red, Green, Black or Purple mean strong colour; Red, Green, Black or Purple mean strong colour; Red, Green, Black or Purple mean strong colour; +/− means less colour than strong; Tr means a trace of colour, less than +/−; — means no colour
Conditions: for colour: 37° C. 18 hours
Text: In order to obtain a fuller picture of the sensitivity of the substrates, they were screened with 100 different clinical isolates of E. coli in a liquid medium containing FAC. The isolates were chosen at random from the Microbiology Department, Freeman Hospital, Newcastle Upon Tyne, UK. The effectiveness of the new substrates was compared with three other media which all contained indoxyl-β-D-glucuronides. One was a commercial medium, CPS ID 3 (bioMérieux SA, Lyon, France). […] This medium was employed as a control. Among the β-D-glucuronidase producing strains of E. coli there is a large variation in the quantity of the enzyme produced and it is almost certain that the CPS ID 3 medium has been rigorously optimised to allow good growth of all the target organisms and maximum expression of the target enzymes. Therefore, two indoxyl glucuronides, X-β-D-glucuronide CHA salt and Rose-β-D-glucuronide CHA salt were also tested in a simple agar medium to allow a direct comparison of the sensitivity of these Indoxyl glucuronides when used in a medium that has not been optimised for the growth of the target organism. The comparison of the results for Rose-β-D-glucuronide and the CPS ID 3 medium was of particular significance as the commercial medium also uses Rose-β-D-glucuronide for the detection of E. coli. For consistency, the four glucuronides were all chosen as their CHA salts. As already stated, it is not anticipated that the salt form is critical to their performance. Currently. X-β-D-glucuronide is often used as either the CHA salt or the sodium salt. Brenner and colleagues [K. P. Brenner et al, Appl. Environ. Microbiol., 59, 3534-3544, (1993)] found no difference in the performance of the CHA and sodium salt forms with their application using indoxyl-β-D-glucuronide, neither in respect of colour development nor in the recovery of E. coli.
The two indoxyl glucuronides used produce insoluble endpoints following hydrolysis, as does the CPS ID 3 medium. It was therefore necessary to test these two substrates on agar plates. In contrast, catechol-β-D-glucuronide (1) and DHN-β-D-glucuronide (2b) give much more soluble endpoints best suited to liquid media and were therefore tested in a broth medium. Each broth was prepared using proteose peptone (Oxoid, Basingstoke, UK) (2 g), NaCl (1 g) and FAC (100 mg) in DI water (180 mL). This mixture was autoclaved and cooled to room temperature before being dispensed into bijoux (100×1.8 mL). Catechol β-D-glucuronide CHA salt (1) or DHN-β-D-glucuronide CHA salt (2b) (60 mg) were each dissolved in water (20 mL) and filtered to sterilize before being aseptically dispensed into successive bijoux (0.2 mL) containing the broth solution. The broth/substrate solutions were then inoculated with bacterial suspensions made up to 0.5 McFarland standard (2 μL per bijoux). X-β-D-glucuronide CHA salt (Glycosynth Ltd, Warrington, UK) (10 mg) was dissolved in NMP (200 μL). Rose-β-D-glucuronide CHA salt (Glycosynth Ltd, Warrington, UK) (20 mg) was dissolved in NMP (200 μL). These solutions were then added to Columbia agar (Oxoid, Basingstoke, UK) (100 mL) and inoculated with bacterial suspensions made up to 0.5 McFarland standard (1 μL). The plates and broths were incubated at 37° C. for 18 hours in air.

[1] = 100 E. coli strains after 18 h incubation, broth

**Q.** Which “% Sensitivity” value [1] does the source give for O=C(O)C1OC(Oc2ccccc2O)C(O)C(O)C1O [Compound 1, Catechol β-D-Glucuronide CHA Salt] here?
**A.** 83%

**Q.** What about the Negative strains [1] of the same compound?
**A.** 17

**Q.** What about the Positive strains [1] of the same compound?
**A.** 83

**Q.** And the colour (E. coli 260262P, broth)?
**A.** Black

**Q.** What about the colour (E. coli 260280Z, broth) of the same compound?
**A.** Black

**Q.** And the colour (E. coli 260310H, broth)?
**A.** Black

**Q.** And the colour (E. coli 260313A, broth)?
**A.** —

**Q.** And the colour (E. coli 260316T, broth)?
**A.** —

**Q.** And the colour (E. coli 260327V, broth)?
**A.** Black

**Q.** What about the colour (E. coli 260330Y, broth) of the same compound?
**A.** Black

**Q.** What about the colour (E. coli 260333P, broth) of the same compound?
**A.** —

**Q.** What about the colour (E. coli 260345F, broth) of the same compound?
**A.** Black

**Q.** What about the colour (E. coli 260348K, broth) of the same compound?
**A.** Black

**Q.** And the colour (E. coli 260354W, broth)?
**A.** Black

**Q.** And the colour (E. coli 260364H, broth)?
**A.** Black

**Q.** And the colour (E. coli 260370C, broth)?
**A.** Black

**Q.** What about the colour (E. coli 260375E, broth) of the same compound?
**A.** Black

**Q.** And the colour (E. coli 260390B, broth)?
**A.** —

**Q.** What about the colour (E. coli 260396Z, broth) of the same compound?
**A.** Black

**Q.** And the colour (E. coli 260398Q, broth)?
**A.** Black

**Q.** And the colour (E. coli 260400N, broth)?
**A.** —

**Q.** And the colour (E. coli 260401Q, broth)?
**A.** Black

**Q.** What about the colour (E. coli 260402H, broth) of the same compound?
**A.** Black

**Q.** And the colour (E. coli 260404W, broth)?
**A.** Black

**Q.** And the colour (E. coli 260405P, broth)?
**A.** Black

**Q.** What about the colour (E. coli 260406A, broth) of the same compound?
**A.** —

**Q.** And the colour (E. coli 260406Y, broth)?
**A.** Black

**Q.** What about the colour (E. coli 260407F, broth) of the same compound?
**A.** Black

**Q.** And the colour (E. coli 260408C, broth)?
**A.** Black

**Q.** What about the colour (E. coli 260411Z, broth) of the same compound?
**A.** Black

**Q.** And the colour (E. coli 260412Q, broth)?
**A.** Black

**Q.** What about the colour (E. coli 260414H, broth) of the same compound?
**A.** Black

**Q.** What about the colour (E. coli 260415Y, broth) of the same compound?
**A.** Black

**Q.** And the colour (E. coli 260416W, broth)?
**A.** Black

**Q.** What about the colour (E. coli 260417P, broth) of the same compound?
**A.** Black

**Q.** And the colour (E. coli 260422Y, broth)?
**A.** Black

**Q.** What about the colour (E. coli 260424P, broth) of the same compound?
**A.** Black

**Q.** And the colour (E. coli 260425A, broth)?
**A.** Black

**Q.** And the colour (E. coli 260426F, broth)?
**A.** Black

**Q.** What about the colour (E. coli 260428T, broth) of the same compound?
**A.** Black

**Q.** What about the colour (E. coli 260431N, broth) of the same compound?
**A.** Black

**Q.** And the colour (E. coli 260432E, broth)?
**A.** Black

**Q.** What about the colour (E. coli 260433H, broth) of the same compound?
**A.** Black

**Q.** What about the colour (E. coli 260434Y, broth) of the same compound?
**A.** Black

**Q.** What about the colour (E. coli 260435W, broth) of the same compound?
**A.** Black

**Q.** What about the colour (E. coli 260436P, broth) of the same compound?
**A.** Black

**Q.** What about the colour (E. coli 260437A, broth) of the same compound?
**A.** —

**Q.** What about the colour (E. coli 260438F, broth) of the same compound?
**A.** Black

**Q.** And the colour (E. coli 260439C, broth)?
**A.** Black

**Q.** And the colour (E. coli 260440S, broth)?
**A.** Black

**Q.** What about the colour (E. coli 260441G, broth) of the same compound?
**A.** Black

**Q.** What about the colour (E. coli 260458Y, broth) of the same compound?
**A.** Black

**Q.** What about the colour (E. coli 260459W, broth) of the same compound?
**A.** Black

**Q.** What about the colour (E. coli 260463D, broth) of the same compound?
**A.** Black

**Q.** What about the colour (E. coli 260464G, broth) of the same compound?
**A.** Black

**Q.** And the colour (E. coli 260471B, broth)?
**A.** —

**Q.** And the colour (E. coli 260478N, broth)?
**A.** —

**Q.** What about the colour (E. coli 260479Q, broth) of the same compound?
**A.** Black

**Q.** What about the colour (E. coli 260480M, broth) of the same compound?
**A.** Black

**Q.** What about the colour (E. coli 260481J, broth) of the same compound?
**A.** Black

**Q.** What about the colour (E. coli 260483R, broth) of the same compound?
**A.** —

**Q.** And the colour (E. coli 260485D, broth)?
**A.** Black

**Q.** And the colour (E. coli 260486L, broth)?
**A.** Black

**Q.** What about the colour (E. coli 260492J, broth) of the same compound?
**A.** Black

**Q.** And the colour (E. coli 260494B, broth)?
**A.** Black

**Q.** And the colour (E. coli 260495R, broth)?
**A.** Black

**Q.** What about the colour (E. coli 260497D, broth) of the same compound?
**A.** Black

**Q.** What about the colour (E. coli 260502G, broth) of the same compound?
**A.** Black

**Q.** What about the colour (E. coli 260503Z, broth) of the same compound?
**A.** Black

**Q.** And the colour (E. coli 260504N, broth)?
**A.** Black

**Q.** What about the colour (E. coli 260505Q, broth) of the same compound?
**A.** —

**Q.** And the colour (E. coli 260506E, broth)?
**A.** Black

**Q.** What about the colour (E. coli 260508Y, broth) of the same compound?
**A.** Black

**Q.** And the colour (E. coli 260509W, broth)?
**A.** Black

**Q.** And the colour (E. coli 260510R, broth)?
**A.** Black

**Q.** And the colour (E. coli 260511X, broth)?
**A.** Black

**Q.** And the colour (E. coli 260514G, broth)?
**A.** —

**Q.** And the colour (E. coli 260515Z, broth)?
**A.** Black

**Q.** What about the colour (E. coli 260521S, broth) of the same compound?
**A.** Black

**Q.** And the colour (E. coli 260522Z, broth)?
**A.** Black

**Q.** What about the colour (E. coli 260532S, broth) of the same compound?
**A.** Black

**Q.** What about the colour (E. coli 260533G, broth) of the same compound?
**A.** Black

**Q.** What about the colour (E. coli 260536Q, broth) of the same compound?
**A.** Black

**Q.** What about the colour (E. coli 260537E, broth) of the same compound?
**A.** —

**Q.** What about the colour (E. coli 260538H, broth) of the same compound?
**A.** —

**Q.** What about the colour (E. coli 260539Y, broth) of the same compound?
**A.** Black

**Q.** What about the colour (E. coli 260541R, broth) of the same compound?
**A.** Black

**Q.** What about the colour (E. coli 260545G, broth) of the same compound?
**A.** Black

**Q.** What about the colour (E. coli 260547N, broth) of the same compound?
**A.** Black

**Q.** What about the colour (E. coli 260548Q, broth) of the same compound?
**A.** Black

**Q.** What about the colour (E. coli 260549E, broth) of the same compound?
**A.** Black

**Q.** What about the colour (E. coli 260553X, broth) of the same compound?
**A.** —

**Q.** And the colour (E. coli 260554D, broth)?
**A.** Black

**Q.** What about the colour (E. coli 260555L, broth) of the same compound?
**A.** Black

**Q.** And the colour (E. coli 260563B, broth)?
**A.** Black

**Q.** And the colour (E. coli 260564R, broth)?
**A.** Black

**Q.** What about the colour (E. coli 260578D, broth) of the same compound?
**A.** —

**Q.** And the colour (E. coli 2603121P, broth)?
**A.** —

**Q.** What about the colour (E. coli 2604399E, broth) of the same compound?
**A.** Black

**Q.** And the colour (E. coli O157 non-toxigenic, broth)?
**A.** —

**Q.** And the “colour of positive solutions” value (broth with FAC, in words)?
**A.** greyish-black solutions, sometimes with black flakes
